Measured values reported in ChEMBL document CHEMBL3885881, “DrugMatrix”.

Species: Rattus norvegicus
Assay: DrugMatrix - Regimen: Daily Repeat
Type: toxicity, organism-based, Sprague-Dawley
Design: regimen Daily Repeat, gender Male, age 6-8 weeks
Conditions: in vivo, po, route oral GAVAGE; for ALANINE AMINOTRANSFERASE / ALBUMIN / ALKALINE PHOSPHATASE / ASPARTATE AMINOTRANSFERASE / BLOOD UREA NITROGEN / CARBON DIOXIDE / CHLORIDE / CHOLESTEROL / CREATININE / GLUCOSE / LIPASE / PHOSPHORUS / POTASSIUM / SODIUM / TOTAL BILIRUBIN / CREATINE PHOSPHOKINASE / LACTATE DEHYDROGENASE / TOTAL PROTEIN / URIC ACID: tissue Plasma; for ABSOLUTE BASOPHIL / ABSOLUTE EOSINOPHIL / ABSOLUTE LYMPHOCYTE / ABSOLUTE MONOCYTE / ABSOLUTE SEGMENTED NEUTROPHIL / BASOPHIL / EOSINOPHIL / ERYTHROCYTE COUNT / HEMATOCRIT / HEMOGLOBIN / LEUKOCYTE COUNT / LYMPHOCYTE / MEAN CORPUSCULAR HEMOGLOBIN / MEAN CORPUSCULAR HEMOGLOBIN CONCENTRATION / MEAN CORPUSCULAR VOLUME / MONOCYTE / NEUTROPHIL / NUCLEATED RED BLOOD CELLS / PLATELET COUNT: tissue Blood
[1] = 7 mg/kg, 96 h, dose level M1, time 4 day, […]
[2] = 12 mg/kg, 72 h, dose level High, time 3 day, vehicle 100 % WATER
[3] = 12 mg/kg, 120 h, dose level High, time 5 day, vehicle 100 % WATER
[4] = […], 72 h, dose 9.6 mg/Kg, dose level M1, time 3 day, vehicle 100 % WATER
[5] = […], 120 h, dose 9.6 mg/Kg, dose level M1, time 5 day, vehicle 100 % WATER

Compound: COc1ccc2c(c1)c(CC(=O)O)c(C)n2C(=O)c1ccc(Cl)cc1 [INDOMETHACIN]
- ALANINE AMINOTRANSFERASE [1]: 65.33 u/L
- ALBUMIN [1]: 2.67 G/DL
- ALKALINE PHOSPHATASE [1]: 487 u/L
- ASPARTATE AMINOTRANSFERASE [1]: 260 u/L
- BLOOD UREA NITROGEN [1]: 49.33 mg/dL
- CARBON DIOXIDE [1]: 24.3 mmol/L
- CHLORIDE [1]: 100 MEQ/L
- CHOLESTEROL [1]: 61.33 mg/dL
- CREATININE [1]: 0.3 mg/dL
- GLUCOSE [1]: 83 mg/dL
- LIPASE [1]: 296.67 u/L
- PHOSPHORUS [1]: 8.35 mg/dL
- POTASSIUM [1]: 5.5 MEQ/L
- SODIUM [1]: 138 MEQ/L
- TOTAL BILIRUBIN [1]: 0.09 mg/dL
- ABSOLUTE BASOPHIL [2]: 0 CELLS/uL
- ABSOLUTE EOSINOPHIL [2]: 64 CELLS/uL
- ABSOLUTE LYMPHOCYTE [2]: 7403 CELLS/uL
- ABSOLUTE MONOCYTE [2]: 98 CELLS/uL
- ABSOLUTE SEGMENTED NEUTROPHIL [2]: 468.33 CELLS/uL
- BASOPHIL [2]: 0%
- EOSINOPHIL [2]: 0.67%
- ERYTHROCYTE COUNT [2]: 2.59 x10E6/uL
- HEMATOCRIT [2]: 16.8%
- HEMOGLOBIN [2]: 6.83 G/DL
- LEUKOCYTE COUNT [2]: 8.03 x10E3/uL
- LYMPHOCYTE [2]: 93.33%
- MEAN CORPUSCULAR HEMOGLOBIN [2]: 26.43 pg
- MEAN CORPUSCULAR HEMOGLOBIN CONCENTRATION [2]: 40.53 G/DL
- MEAN CORPUSCULAR VOLUME [2]: 65.07 fL
- MONOCYTE [2]: 1%
- NEUTROPHIL [2]: 5%
- NUCLEATED RED BLOOD CELLS [2]: 2.67 /100WBC
- PLATELET COUNT [2]: 714.67 x10E3/uL
- ALANINE AMINOTRANSFERASE [2]: 21 u/L
- ALBUMIN [2]: 1.93 G/DL
- ALKALINE PHOSPHATASE [2]: 177.67 u/L
- ASPARTATE AMINOTRANSFERASE [2]: 46.33 u/L
- BLOOD UREA NITROGEN [2]: 15.33 mg/dL
- CARBON DIOXIDE [2]: 27 mmol/L
- CHLORIDE [2]: 104.33 MEQ/L
- CHOLESTEROL [2]: 69.67 mg/dL
- CREATINE PHOSPHOKINASE [2]: 148.33 u/L
- CREATININE [2]: 0.1 mg/dL
- GLUCOSE [2]: 146.67 mg/dL
- LACTATE DEHYDROGENASE [2]: 36 u/L
- LIPASE [2]: 8.33 u/L
- PHOSPHORUS [2]: 11 mg/dL
- POTASSIUM [2]: 4.8 MEQ/L
- SODIUM [2]: 143.4 MEQ/L
- TOTAL BILIRUBIN [2]: 0.1 mg/dL
- TOTAL PROTEIN [2]: 4.5 G/DL
- URIC ACID [2]: 0.53 mg/dL
- ABSOLUTE BASOPHIL [3]: 0 CELLS/uL
- ABSOLUTE EOSINOPHIL [3]: 18.5 CELLS/uL
- ABSOLUTE LYMPHOCYTE [3]: 2977 CELLS/uL
- ABSOLUTE MONOCYTE [3]: 109 CELLS/uL
- ABSOLUTE SEGMENTED NEUTROPHIL [3]: 495.5 CELLS/uL
- BASOPHIL [3]: 0%
- EOSINOPHIL [3]: 0.5%
- ERYTHROCYTE COUNT [3]: 3.63 x10E6/uL
- HEMATOCRIT [3]: 21.7%
- HEMOGLOBIN [3]: 9.1 G/DL
- LEUKOCYTE COUNT [3]: 3.6 x10E3/uL
- LYMPHOCYTE [3]: 83%
- MEAN CORPUSCULAR HEMOGLOBIN [3]: 25 pg
- MEAN CORPUSCULAR HEMOGLOBIN CONCENTRATION [3]: 41.8 G/DL
- MEAN CORPUSCULAR VOLUME [3]: 59.9 fL
- MONOCYTE [3]: 3%
- NEUTROPHIL [3]: 13.5%
- NUCLEATED RED BLOOD CELLS [3]: 1.5 /100WBC
- PLATELET COUNT [3]: 1098.5 x10E3/uL
- ALANINE AMINOTRANSFERASE [3]: 17 u/L
- ALBUMIN [3]: 2.1 G/DL
- ALKALINE PHOSPHATASE [3]: 366 u/L
- ASPARTATE AMINOTRANSFERASE [3]: 84 u/L
- BLOOD UREA NITROGEN [3]: 37 mg/dL
- CARBON DIOXIDE [3]: 26 mmol/L
- CHLORIDE [3]: 108 MEQ/L
- CHOLESTEROL [3]: 66 mg/dL
- CREATINE PHOSPHOKINASE [3]: 224 u/L
- CREATININE [3]: 0.1 mg/dL
- GLUCOSE [3]: 132.5 mg/dL
- LACTATE DEHYDROGENASE [3]: 83.5 u/L
- LIPASE [3]: 12.5 u/L
- PHOSPHORUS [3]: 11.15 mg/dL
- POTASSIUM [3]: 5.62 MEQ/L
- SODIUM [3]: 146.9 MEQ/L
- TOTAL BILIRUBIN [3]: 0.15 mg/dL
- TOTAL PROTEIN [3]: 4.7 G/DL
- URIC ACID [3]: 0.45 mg/dL
- ABSOLUTE BASOPHIL [4]: 0 CELLS/uL
- ABSOLUTE EOSINOPHIL [4]: 39.33 CELLS/uL
- ABSOLUTE LYMPHOCYTE [4]: 13009.33 CELLS/uL
- ABSOLUTE MONOCYTE [4]: 145.33 CELLS/uL
- ABSOLUTE SEGMENTED NEUTROPHIL [4]: 3406 CELLS/uL
- BASOPHIL [4]: 0%
- EOSINOPHIL [4]: 0.33%
- ERYTHROCYTE COUNT [4]: 4.19 x10E6/uL
- HEMATOCRIT [4]: 26.67%
- HEMOGLOBIN [4]: 10.63 G/DL
- LEUKOCYTE COUNT [4]: 16.6 x10E3/uL
- LYMPHOCYTE [4]: 78.33%
- MEAN CORPUSCULAR HEMOGLOBIN [4]: 25.53 pg
- MEAN CORPUSCULAR HEMOGLOBIN CONCENTRATION [4]: 40 G/DL
- MEAN CORPUSCULAR VOLUME [4]: 63.8 fL
- MONOCYTE [4]: 1%
- NEUTROPHIL [4]: 20.33%
- NUCLEATED RED BLOOD CELLS [4]: 0 /100WBC
- PLATELET COUNT [4]: 984.67 x10E3/uL
- ALANINE AMINOTRANSFERASE [4]: 50.33 u/L
- ALBUMIN [4]: 3.17 G/DL
- ALKALINE PHOSPHATASE [4]: 197.33 u/L
- ASPARTATE AMINOTRANSFERASE [4]: 77.33 u/L
- BLOOD UREA NITROGEN [4]: 13.33 mg/dL
- CARBON DIOXIDE [4]: 26 mmol/L
- CHLORIDE [4]: 102.67 MEQ/L
- CHOLESTEROL [4]: 72.33 mg/dL
- CREATINE PHOSPHOKINASE [4]: 564.67 u/L
- CREATININE [4]: 0.3 mg/dL
- GLUCOSE [4]: 162.33 mg/dL
- LACTATE DEHYDROGENASE [4]: 111.33 u/L
- LIPASE [4]: 11.67 u/L
- PHOSPHORUS [4]: 10.83 mg/dL
- POTASSIUM [4]: 5.33 MEQ/L
- SODIUM [4]: 141.3 MEQ/L
- TOTAL BILIRUBIN [4]: 0.1 mg/dL
- TOTAL PROTEIN [4]: 5.07 G/DL
- URIC ACID [4]: 1.23 mg/dL
- ABSOLUTE BASOPHIL [5]: 0 CELLS/uL
- ABSOLUTE EOSINOPHIL [5]: 0 CELLS/uL
- ABSOLUTE LYMPHOCYTE [5]: 4773 CELLS/uL
- ABSOLUTE MONOCYTE [5]: 34 CELLS/uL
- ABSOLUTE SEGMENTED NEUTROPHIL [5]: 943 CELLS/uL
- BASOPHIL [5]: 0%
- EOSINOPHIL [5]: 0%
- ERYTHROCYTE COUNT [5]: 4.33 x10E6/uL
- HEMATOCRIT [5]: 26.75%
- HEMOGLOBIN [5]: 10.7 G/DL
- LEUKOCYTE COUNT [5]: 5.75 x10E3/uL
- LYMPHOCYTE [5]: 81%
- MEAN CORPUSCULAR HEMOGLOBIN [5]: 24.7 pg
- MEAN CORPUSCULAR HEMOGLOBIN CONCENTRATION [5]: 40 G/DL
- MEAN CORPUSCULAR VOLUME [5]: 61.75 fL
- MONOCYTE [5]: 0.5%
- NEUTROPHIL [5]: 18.5%
- NUCLEATED RED BLOOD CELLS [5]: 1 /100WBC
- PLATELET COUNT [5]: 1266.5 x10E3/uL
- ALANINE AMINOTRANSFERASE [5]: 53.5 u/L
- ALBUMIN [5]: 3 G/DL
- ALKALINE PHOSPHATASE [5]: 320 u/L
- ASPARTATE AMINOTRANSFERASE [5]: 129 u/L
- BLOOD UREA NITROGEN [5]: 45 mg/dL
- CARBON DIOXIDE [5]: 33 mmol/L
- CHLORIDE [5]: 92.5 MEQ/L
- CHOLESTEROL [5]: 60.5 mg/dL
- CREATINE PHOSPHOKINASE [5]: 215 u/L
- CREATININE [5]: 0.32 mg/dL
- GLUCOSE [5]: 131 mg/dL
- LACTATE DEHYDROGENASE [5]: 112.5 u/L
- LIPASE [5]: 24.5 u/L
- PHOSPHORUS [5]: 11.45 mg/dL
- POTASSIUM [5]: 5.66 MEQ/L
- SODIUM [5]: 139.9 MEQ/L
- TOTAL BILIRUBIN [5]: 0.15 mg/dL
- TOTAL PROTEIN [5]: 5.8 G/DL
- URIC ACID [5]: 1.05 mg/dL
